Assay [1] concerns P53 and POLII (RNA Polymerase II). In words: in-situ proximity ligation assay (PLA) of physical binding between P53 and POLII in HaCaT cells. It is filed as cell-based, human. Conditions: peptide 1 and 10 μM, 30 minutes, compared to untreated control group (FIG. 2). The procedure: • 1. To confirm whether the peptides of Example 1 increase the transcriptional activity of P53, which was related to cell anti-aging, cells were treated with the peptides of Example 1, and then the effects of the peptides on the physical binding between P53 and POLII (RNA Polymerase II) was evaluated using an in-situ proximity ligation assay (PLA) method. • 2. Specifically, 4.5×10^4 HaCaT cells (human keratinocytes) were seeded into each well of a 24-well microplate with DMEM serum medium. The cells were cultured in an incubator at a temperature of 37° C. and with 5% CO2 for 24 hours. Next, the cells were treated with each of the peptides of Example 1, and the cells were incubated under the same conditions for 30 minutes. The concentration of each peptide in the medium was set to 1 and 10 μM. The control group received no treatment. Afterward, the cells in each well were washed with PBS and fixed by treatment with 2% formaldehyde for 15 minutes, and then the cells were treated with 0.1% TritonX-100 for 5 minutes to increase antibody permeability into the cells. […] Afterward, the physical interaction of P53 and POLII antibodies was quantified by measuring luminescence signals (PLA signals) detected in each cell using a fluorescence microscope (Logosbio/CelenaS, Korea), and the results are shown in FIG. 2. • 4. […]

For the next assay, the system named is RAR and RXR. Put plainly: in-situ proximity ligation assay (PLA) of physical binding between RAR and RXR in HaCaT cells. Type of assay: cell-based, human. Conditions: peptide 1 and 10 μM, 30 minutes, compared to untreated control group (FIG. 1). The procedure: • 1. Retinol regulates the transcription of target DNA by inducing the binding between Retinoic acid receptor (RAR) and Retinoid X Receptor (RXR). To confirm whether the peptides of Example 1 activate the binding between RXR/RAR, the effects of the peptides on the physical binding between RAR and RXR were evaluated using an in-situ proximity ligation assay (PLA) method. • 2. Specifically, 4.5×10^4 HaCaT cells (human keratinocytes) were seeded into each well of a 24-well microplate with DMEM serum medium. The cells were cultured in an incubator at a temperature of 37° C. and with 5% CO2 for 24 hours. Next, the cells were treated with each of the peptides of Example 1, and the cells were incubated under the same conditions for 30 minutes. The concentration of each peptide in the medium was set to 1 and 10 μM. The control group received no treatment. Afterward, the cells in each well were washed with PBS and fixed by treatment with 2% formaldehyde for 15 minutes, and then the cells were treated with 0.1% TritonX-100 for 5 minutes to increase antibody permeability into the cells. […] Afterward, the physical interaction of RAR and RXR antibodies was quantified by measuring luminescence signals (PLA signals) detected in each cell using a fluorescence microscope (Logosbio/CelenaS, Korea), and the results are shown in FIG. 1. • 4. […]

Assay [2] has as its system B16F10 cells (mouse melanocytes). Put plainly: inhibition of α-MSH-stimulated melanin synthesis in cells. Type of assay: cell-based. Conditions: 72 hours; for increase in melanin induced by α-MSH stimulation: 100 nM α-MSH, peptide 1 and 10 μM; for Melanin amount (of Control): no treatment = 100. The protocol: • 1. […] Specifically, 1×10^5 B16F10 cells (mouse melanocytes) were seeded into each well of a 6-well microplate with DMEM serum medium. The cells were cultured in an incubator at a temperature of 37° C. and with 5% CO2 for 24 hours. […] The concentration of each peptide in the medium was set to 1 and 10 μM. […] Afterward, to measure the amount of extracellular melanin, the supernatant was taken, and the absorbance of free melanin in the medium was measured at a wavelength of 400 nm. To measure the amount of intracellular melanin, the cells were washed with PBS after removing the medium, and then the cells were lysed with 1 M NaOH at a temperature of 60° C. for 30 minutes, and the absorbance was measured at a wavelength of 400 nm. The amount of free melanin and intracellular melanin measured by absorbance were quantified, and the results are shown in Table 2. • 3.

For another assay, the system named is human dermal fibroblasts. Put plainly: immunofluorescence analysis of intracellular collagen synthesis (anti-COL1A2). Conditions: peptide 1 and 10 μM, 24 hours, compared to untreated control group (FIG. 3). It is filed as cell-based. The procedure: • 1. Immunofluorescence analysis was performed to evaluate the effects of the peptides of Example 1 on intracellular collagen synthesis. • 2. Specifically, 4.5×10^4 human dermal fibroblasts were seeded into each well of a 24-well microplate along with CEFOgro Human MSC Growth Medium). The cells were cultured in an incubator at a temperature of 37° C. and with 5% CO2 for 24 hours. Next, the cells were treated with each of the peptides of Example 1, and the cells were incubated under the same conditions for 24 hours. The concentration of each peptide in the medium was set to 1 and 10 μM. Out of two control groups, one received no treatment, and the other was treated with 1 μM retinol. The cells in each well were washed with PBS and fixed by treatment with 4% formaldehyde for 15 minutes, and then the cells were treated with 0.1% TritonX-100 for 5 minutes to increase antibody permeability into the cells. The cells were washed with PBS solution and treated with anti-COL1A2 polyclonal antibodies (Santa Cruz, CA, USA) for 1 hour. Next, the cells were treated with mouse anti-goat IgG-FITC for 40 minutes. To stain the cytoskeleton, the cells were treated with Phalloidin-Rhodamin for 40 minutes. After mounting with DAPI-added reagent for cell nucleus staining, the cells were observed using a fluorescence microscope (Logosbio/CelenaS, Korea) and quantified using a program (NIS-Eliments-3.1).

Setting [3] is: α-MSH (100 nM) + test substance 1 uM.
Where [4] appears, read: α-MSH (100 nM) + test substance 10 uM.

With Ile-Gln-Glu-Met (IQEM) [Raragin A], the “physical binding between P53 and POLII (PLA signals)” value in assay [1] was “increased”. Further, the “physical binding between RAR and RXR (PLA signals)” value in the assay with RAR and RXR is “increased”. The “increase in melanin induced by α-MSH stimulation” value in assay [2] was “reduced”. Also, the Melanin amount (of Control) in assay [2] (setting [3]) was 111%; in assay [2] (setting [4]) it was 107%. Also, in the assay with human dermal fibroblasts, the collagen synthesis result is “significantly increased”.

Take `CC1=C(/C=C/C(C)=C/C=C/C(C)=C/CO)C(C)(C)CCC1` [Retinol, retinol, reference compound]: in assay [2] (setting [3]), the Melanin amount (of Control) is 114%.

Regarding Thr-Val-Glu-Phe (TVEF) [Raragin B], the “physical binding between P53 and POLII (PLA signals)” value in assay [1] was “increased”. Moreover, the “physical binding between RAR and RXR (PLA signals)” value in the assay on RAR and RXR is “increased”. In assay [2], the “increase in melanin induced by α-MSH stimulation” value was “reduced”. Besides, the values for the Melanin amount (of Control) in assay [2] (setting [3]) and in assay [2] (setting [4]) were 109% and 106%, respectively. Further, the collagen synthesis entry in the assay with human dermal fibroblasts is recorded as “significantly increased”.

The values above are taken from patent publication US20260232561A1, “PEPTIDE ACTIVATING RETINOIC ACID RECEPTOR, AND COSMETIC COMPOSITION CONTAINING SAME” (SUPADELIXIR INC., priority 2023, published 2026).
